Data: publication PMC6201879, “N-substituted phenylbenzamides of the niclosamide chemotype attenuate obesity related changes in high fat diet fed mice” (PLoS ONE, 2018)

Experiments:
[1] = test system: Salmonella typhimurium TA98; assay: Ames assay, strain TA98; settings: for Mean Revertant Colony Counts TA98 SP9+: with S9; for Mean Revertant Colony Counts TA98 S9-: without S9
[2] = Body weight changes in HFD-fed mice; format: in vivo, mouse; settings: 10mg/kg I.P daily for 12 days
Protocol: We next measured body weight changes in HFD-fed animals prior to treatment with niclosamide or phenylbenzamide derivatives and after 12 days, prior to sacrifice. During this time, all animals (including sham) lost some weight.
20-week old animals were treated IP with 500199 at 10 or 25mg/kg by IP over a time-course of 9 days. At day 0, 3, 6 and 9 animals were weighed and tissue samples were collected for standard histological scoring of hepatic steatosis and automated quantitative histomorphometric scoring.

| Structure (SMILES) | Mean Revertant Colony Counts TA98 SP9+ ([1]; 1.5 ug/Well) | Mean Revertant Colony Counts TA98 S9- ([1]; 1.5 ug/Well) | Mean Revertant Colony Counts TA98 SP9+ ([1]; 4 ug/Well) | Mean Revertant Colony Counts TA98 S9- ([1]; 4 ug/Well) | Mean Revertant Colony Counts TA98 SP9+ ([1]; 10 ug/Well) | Mean Revertant Colony Counts TA98 S9- ([1]; 10 ug/Well) | Mean Revertant Colony Counts TA98 SP9+ ([1]; 25 ug/Well) | Mean Revertant Colony Counts TA98 S9- ([1]; 25 ug/Well) | Mean Revertant Colony Counts TA98 SP9+ ([1]; 64 ug/Well) | Mean Revertant Colony Counts TA98 S9- ([1]; 64 ug/Well) | Mean Revertant Colony Counts TA98 SP9+ ([1]; 160 ug/Well) | Mean Revertant Colony Counts TA98 S9- ([1]; 160 ug/Well) | Mean Revertant Colony Counts TA98 SP9+ ([1]; 400 ug/Well) | Mean Revertant Colony Counts TA98 S9- ([1]; 400 ug/Well) | fold increase in revertant colonies, TA98 ([1]; 400 μg/well in the absence of S9 mix) | Mean Revertant Colony Counts TA98 SP9+ ([1]; 1000 ug/Well) | Mean Revertant Colony Counts TA98 S9- ([1]; 1000 ug/Well) | body weight change vs sham [2] | fold increase in revertant colonies, TA98 ([1]; 1000 μg/well in the absence of S9 mix) |
| --- | --- | --- | --- | --- | --- | --- | --- | --- | --- | --- | --- | --- | --- | --- | --- | --- | --- | --- | --- |
| CC(C)(C)c1ccc(O)c(C(=O)Nc2cc(C(=O)O)ccc2Cl)c1 [Compound 600494, 3-{[2-Hydroxy-5-(tert-butyl)benzene]amido}-4chloro-benzoic acid] | 8.7 | 7.3 | 9.3 | 7.7 | 7.7 | 7.3 | 12.0 | 6.7 | 8.0 | 6.0 | 15.7 | 11.7 | 10.3 | 14.0 | ≥ 2 fold | 11.3 | 10.7 |  |  |
| CC(C)(C)c1ccc(O)c(C(=O)Nc2ccc(C(=O)O)cc2C(F)(F)F)c1 [Compound 500873, 4-[(5-tert-butyl-2-hydroxy)amido]-3-(trifluoromethyl)benzoic acid] | 5.7 | 5.0 | 6.0 | 9.0 | 6.3 | 4.0 | 9.3 | 7.7 | 8.3 | 11.7 | 10.3 | 10.0 | 14.0 | 11.7 |  | 16.3 | 14.0 | lost weight but this loss failed to reach significance | ≥ 2 fold |
